# Data from patent US20080051387A1, “TETRAHYDROPYRIDO[3,4-D]PYRIMIDINES AND RELATED ANALOGUES” (priority 2006, published 2008).
# Target: T1, chimeric human H3 receptor (Homo sapiens, UniProt Q9Y5N1)
# T1 construct: rat Galpha-i2 (Gnai2, rat); made in house; host or cells: Sf9 insect cells (baculovirus); P2 membranes
# Assay: Chimeric human H3 receptor screening GTP binding assay (inhibition of histamine-stimulated GTP-gamma35S binding, Example 8)
# Type: biochemical
# Conditions: 1 h; assay described in Example 8; symbol "!" in column headed Ki; read-out: Ki ("!": percent inhibition of agonist-induced GTP-gammaS binding to H3)
# In short: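 Compound tested at 4 μM against 1 μM histamine stimulation; 125 pM GTP-gamma35S binding measured by filtration and scintillation after 60 min at room temperature. Membranes from Sf9 cells expressing chimeric human H3 plus G-protein subunits, in Tris pH 7.4/NaCl/MgCl2/GDP buffer; values are % inhibition after nonspecific subtraction.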
# T1 sequence (Q9Y5N1 with tags, fused parts or gaps): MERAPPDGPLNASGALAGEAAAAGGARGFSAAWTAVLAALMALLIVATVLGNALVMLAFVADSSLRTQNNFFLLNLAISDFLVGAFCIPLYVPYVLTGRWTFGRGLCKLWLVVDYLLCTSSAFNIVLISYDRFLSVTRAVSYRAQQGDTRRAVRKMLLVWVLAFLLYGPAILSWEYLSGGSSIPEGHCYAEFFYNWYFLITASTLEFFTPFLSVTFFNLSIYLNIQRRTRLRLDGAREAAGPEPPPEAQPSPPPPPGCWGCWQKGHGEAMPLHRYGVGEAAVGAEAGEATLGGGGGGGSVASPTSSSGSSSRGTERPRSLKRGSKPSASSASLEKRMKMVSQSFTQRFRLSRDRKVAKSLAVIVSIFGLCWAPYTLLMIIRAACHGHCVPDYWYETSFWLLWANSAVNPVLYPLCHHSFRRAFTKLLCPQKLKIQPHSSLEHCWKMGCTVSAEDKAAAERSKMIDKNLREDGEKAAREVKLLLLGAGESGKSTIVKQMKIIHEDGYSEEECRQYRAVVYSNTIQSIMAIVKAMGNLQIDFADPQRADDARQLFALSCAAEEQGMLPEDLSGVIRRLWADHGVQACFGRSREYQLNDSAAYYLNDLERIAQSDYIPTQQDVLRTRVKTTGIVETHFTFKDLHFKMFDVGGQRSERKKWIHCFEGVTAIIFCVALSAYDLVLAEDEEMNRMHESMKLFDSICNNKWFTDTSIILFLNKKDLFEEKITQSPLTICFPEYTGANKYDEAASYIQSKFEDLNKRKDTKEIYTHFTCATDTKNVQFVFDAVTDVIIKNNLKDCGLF
row,SMILES,inhibition at 4 µM [%]
1,"Cc1ccc(Oc2ccccc2C(=O)N2CCc3cnc(N4CCN(C5CCC5)CC4)nc3CC2)cc1 [Compound 418, 2-(4-cyclobutylpiperazin-1-yl)-7-[2-(4-methylphenoxy)benzoyl]-6,7,8,9-tetrahydro-5H-pyrimido[4,5-d]azepine]",≥ 90
2,"COc1ncccc1C(=O)N1CCc2cnc(N3CCN(C4CCC4)CC3)nc2CC1 [Compound 498, 2-(4-cyclobutylpiperazin-1-yl)-7-[(2-methoxypyridin-3-yl)carbonyl]-6,7,8,9-tetrahydro-5H-pyrimido[4,5-d]azepine]",≥ 90
3,"COc1c(Cl)cc(Cl)c(OC)c1C(=O)N1CCc2cnc(N3CCN(C4CCC4)CC3)nc2CC1 [Compound 427, 2-(4-cyclobutylpiperazin-1-yl)-7-(3,5-dichloro-2,6-dimethoxybenzoyl)-6,7,8,9-tetrahydro-5H-pyrimido[4,5-d]azepine]",≥ 90
4,"CCCc1c(C(=O)N2CCc3cnc(N4CCN(C5CCC5)CC4)nc3CC2)cnn1-c1ccccc1 [Compound 508, 2-(4-cyclobutylpiperazin-1-yl)-7-[(1-phenyl-5-propyl-1H-pyrazol-4-yl)carbonyl]-6,7,8,9-tetrahydro-5H-pyrimido[4,5-d]azepine]",≥ 90
5,"C=CCSc1ncccc1C(=O)N1CCc2cnc(N3CCN(C4CCC4)CC3)nc2CC1 [Compound 499, 7-{[2-(allythio)pyridin-3-yl]carbonyl}-2-(4-cyclobutylpiperazin-1-yl)-6,7,8,9-tetrahydro-5H-pyrimido[4,5-d]azepine]",≥ 90
6,"COc1cc(Br)c(C(=O)N2CCc3cnc(N4CCN(C5CCC5)CC4)nc3CC2)cc1OC [Compound 429, 7-(2-bromo-4,5-dimethoxybenzoyl)-2-(4-cyclobutylpiperazin-1-yl)-6,7,8,9-tetrahydro-5H-pyrimido[4,5-d]azepine]",≥ 90
7,"CCOc1cc(C(=O)N2CCc3cnc(N4CCN(C5CCC5)CC4)nc3CC2)cc(OCC)c1OCC [Compound 385, 2-(4-cyclobutylpiperazin-1-yl)-7-(3,4,5-triethoxybenzoyl)-6,7,8,9-tetrahydro-5H-pyrimido[4,5-d]azepine]",≥ 90
8,"COc1ccc(C(=O)N2CCc3cnc(N4CCN(C5CCC5)CC4)nc3CC2)c(Cl)c1OC [Compound 425, 7-(2-chloro-3,4-dimethoxybenzoyl)-2-(4-cyclobutylpiperazin-1-yl)-6,7,8,9-tetrahydro-5H-pyrimido[4,5-d]azepine]",≥ 90

# Same assay, conditions: 1 h; assay of Example 8; symbol "!" in column headed Ki; read-out: percent inhibition of agonist-induced GTP-gammaS binding to H3
row,SMILES,inhibition at 4 µM [%]
1,"O=C(c1ccc(OC(F)F)cc1)N1CCc2cnc(N3CCN(C4CCC4)CC3)nc2CC1 [Compound 366, 2-(4-cyclobutylpiperazin-1-yl)-7-[4-(difluoromethoxy)benzoyl]-6,7,8,9-tetrahydro-5H-pyrimido[4,5-d]azepine]",≥ 90
2,"CC(C)CCC(=O)N1CCc2cnc(N3CCN(C4CCC4)CC3)nc2CC1 [Compound 209, 2-(4-cyclobutylpiperazin-1-yl)-7-(4-methylpentanoyl)-6,7,8,9-tetrahydro-5H-pyrimido[4,5-d]azepine]",≥ 90
3,"O=C(COc1ccc(Cl)cc1)N1CCc2cnc(N3CCN(C4CCC4)CC3)nc2CC1 [Compound 326, 7-[(4-chlorophenoxy)acetyl]-2-(4-cyclobutylpiperazin-1-yl)-6,7,8,9-tetrahydro-5H-pyrimido[4,5-d]azepine]",≥ 90
4,"CC(C)(C)c1ccc(C(=O)N2CCc3cnc(N4CCN(C5CCC5)CC4)nc3CC2)cc1 [Compound 364, 7-(4-tert-butylbenzoyl)-2-(4-cyclobutylpiperazin-1-yl)-6,7,8,9-tetrahydro-5H-pyrimido[4,5-d]azepine]",≥ 90
5,"O=C(Cc1ccc(F)cc1Cl)N1CCc2cnc(N3CCN(C4CCC4)CC3)nc2CC1 [Compound 302, 7-[(2-chloro-4-fluorophenyl)acetyl]-2-(4-cyclobutylpiperazin-1-yl)-6,7,8,9-tetrahydro-5H-pyrimido[4,5-d]azepine]",≥ 90
6,"O=C(C1CCC1)N1CCc2cnc(N3CCN(C4CCC4)CC3)nc2CC1 [Compound 216, 7-(cyclobutylcarbonyl)-2-(4-cyclobutylpiperazin-1-yl)-6,7,8,9-tetrahydro-5H-pyrimido[4,5-d]azepine]",≥ 90
7,"O=C(c1cccc(Oc2ccccc2)c1)N1CCc2cnc(N3CCN(C4CCC4)CC3)nc2CC1 [Compound 374, 2-(4-cyclobutylpiperazin-1-yl)-7-(3-phenoxybenzoyl)-6,7,8,9-tetrahydro-5H-pyrimido[4,5-d]azepine]",≥ 90
8,"COc1cccc(OCC(=O)N2CCc3cnc(N4CCN(C5CCC5)CC4)nc3CC2)c1 [Compound 324, 2-(4-cyclobutylpiperazin-1-yl)-7-[(3-methoxyphenoxy)acetyl]-6,7,8,9-tetrahydro-5H-pyrimido[4,5-d]azepine]",≥ 90

# Same assay, conditions: symbol ! in Ki; test compound 4 μM, 1 μM histamine; read-out: percent inhibition of agonist-induced GTP-gammaS binding to H3
row,SMILES,inhibition at 4 µM [%]
1,"c1nc2c(c(N3CCN(C4CCC4)CC3)n1)CCN(CC1CCOC1)CC2 (stereo not shown) [Compound 171, 4-(4-cyclobutylpiperazin-1-yl)-7-(tetrahydrofuran-3-ylmethyl)-6,7,8,9-tetrahydro-5H-pyrimido[4,5-d]azepine]",≥ 90
2,"COc1cccc(CN2CCc3ncnc(N4CCN(C5CCC5)CC4)c3CC2)c1OC [Compound 175, 4-(4-cyclobutylpiperazin-1-yl)-7-(2,3-dimethoxybenzyl)-6,7,8,9-tetrahydro-5H-pyrimido[4,5-d]azepine]",≥ 90
3,"c1ccc2c(CN3CCc4nc(N5CCN(C6CCC6)CC5)ncc4C3)ccnc2c1 [Compound 617, 2-(4-cyclobutylpiperazin-1-yl)-6-(quinolin-4-ylmethyl)-5,6,7,8-tetrahydropyrido[4,3-d]pyrimidine]",≥ 90
4,"CC(c1ccc(N2CCCC2)cc1)N1CCc2c(ncnc2N2CCN(C3CCC3)CC2)C1 (stereo not shown) [Compound 137, 4-(4-cyclobutylpiperazin-1-yl)-7-[1-(4-pyrrolidin-1-ylphenyl)ethyl]-5,6,7,8-tetrahydropyrido[3,4-d]pyrimidine]",≥ 90
5,"O=C(CC1CCCCC1)N1CCc2c(ncnc2N2CCN(C3CCC3)CC2)C1 [Compound 48, 4-(4-cyclobutylpiperazin-1-yl)-7-(cyclohexylacetyl)-5,6,7,8-tetrahydropyrido[3,4-d]pyrimidine]",≥ 90
6,"c1nc2c(c(N3CCN(C4CCC4)CC3)n1)CCN(Cc1ccc(N3CCCC3)nc1)C2 [Compound 96, 4-(4-cyclobutylpiperazin-1-yl)-7-[(6-pyrrolidin-1-ylpyridin-3-yl)methyl]-5,6,7,8-tetrahydropyrido[3,4-d]pyrimidine]",≥ 90
7,"Cc1ccc(CN2CCc3ncnc(N4CCN(C5CCC5)CC4)c3CC2)cc1C [Compound 172, 4-(4-cyclobutylpiperazin-1-yl)-7-(3,4-dimethylbenzyl)-6,7,8,9-tetrahydro-5H-pyrimido[4,5-d]azepine]",≥ 90
8,"c1cncc(CN2CCc3c(ncnc3N3CCN(C4CCC4)CC3)C2)c1 [Compound 75, 4-(4-cyclobutylpiperazin-1-yl)-7-(pyridin-3-ylmethyl)-5,6,7,8-tetrahydropyrido[3,4-d]pyrimidine]",≥ 90
9,"CC(c1ccc2c(c1)OCCO2)N1CCc2c(ncnc2N2CCN(C3CCC3)CC2)C1 (stereo not shown) [Compound 129, 4-(4-cyclobutylpiperazin-1-yl)-7-[1-(2,3-dihydro-1,4-benzodioxin-6-yl)ethyl]-5,6,7,8-tetrahydropyrido[3,4-d]pyrimidine]",≥ 90
